In general, AC50 refers to the midpoint of the concentration-response curve, whichever way the signal moves. Broadly, the inhibition is the percentage by which the read-out fell short of the control.

The target of test [1] is T1, cyclodiphosphate synthase IspF (Escherichia coli, UniProt P62617).
T1 sequence (P62617 1-159): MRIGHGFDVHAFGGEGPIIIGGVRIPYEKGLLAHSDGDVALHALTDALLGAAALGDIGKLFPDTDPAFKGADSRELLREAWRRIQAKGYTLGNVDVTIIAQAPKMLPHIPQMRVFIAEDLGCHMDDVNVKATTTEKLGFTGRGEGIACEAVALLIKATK
Kind of test: HPLC-based assay of CMP formation by purified IspF. In kind it is biochemical.

The target in test [2] is T1, cyclodiphosphate synthase IspF. The test can be described thus: HPLC-based assay, […] inhibition of the IspF-MEP complex at […] FDP. The following applies: read-out: % inhibition at 500 μM. The format is biochemical.

The molecule `C[C@](O)(CO)[C@H](O)COP(=O)(O)O` [MEP, 2C-methyl-D-erythritol 4-phosphate] showed an AC50 in test [1] of 133 ± 33 µM.

In turn, `C[C@](O)(CO)[C@H](O)CO` [ME, 2C-methyl-D-erythritol] gave an AC50 in test [1] of 106 ± 14 µM.

As to `CC(C)=CCC/C(C)=C/CC/C(C)=C/CO[P@@](=O)(O)OP(=O)(O)O` (stereo in doubt) [FDP, farnesyl diphosphate], in test [2], the inhibition at 500 µM came out at 43%.

(Values after article PMC3477264 (ACS chemical biology, 2012).)
